In patent US10597388B2, “Pyridazinone herbicides” (FMC CORPORATION, priority 2014, dated 2020):

Tests used:
Format in all cases: in vivo
[1] = tested on: pigweed (Amaranthus retroflexus); test: Test A greenhouse herbicide test, pre- and postemergence
Summary of the method: (§1)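 Seeds sown in loam–sand blend got a preemergence directed soil spray of compound in non-phytotoxic solvent with surfactant. Postemergence treatment was given at 2–10 cm, one- to two-leaf stage. After ~10 d in greenhouse, injury was rated visually vs untreated controls, 0 (no effect) to 100 (complete control).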

[2] = tested on: ryegrass, Italian (Italian ryegrass, Lolium multiflorum); test: as above
Summary of the method: as §1

[3] = tested on: wheat (Triticum aestivum); test: as above; details: Postemergence
Summary of the method: as §1

[4] = tested on: blackgrass (Alopecurus myosuroides); test: Test A greenhouse herbicide test, postemergence
Summary of the method: (§2)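 Plants grown in loam soil/sand blend pots were treated postemergence at 2 to 10 cm height, one- to two-leaf stage, with formulated test chemicals. After approximately 10 d in a greenhouse, injury was rated visually against untreated controls on a 0 to 100 scale (0 no effect, 100 complete control).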

[5] = tested on: galium (catchweed bedstraw, Galium aparine); test: Test A greenhouse herbicide test, postemergence
Summary of the method: as §2

[6] = tested on: lambsquarters (Chenopodium album); test: Test C greenhouse herbicide test, pre- and postemergence
Summary of the method: (§3)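 Preemergence: seeds sown in a loam soil–sand blend and sprayed with test chemicals in a non-phytotoxic solvent mixture containing surfactant. Postemergence: plants grown in peat-based medium and treated at 2 to 18 cm (1- to 4-leaf stage). After 13 to 15 d in a greenhouse, injury was visually rated 0–100 against controls.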

[7] = tested on: morningglory (Ipomoea coccinea); test: as above
Summary of the method: as §3

[8] = tested on: oilseed rape (Brassica napus); test: as above
Summary of the method: as §3

[9] = tested on: pigweed (Amaranthus retroflexus); test: as above
Summary of the method: as §3

[10] = tested on: ragweed (common ragweed, Ambrosia elatior); test: as above
Summary of the method: as §3

[11] = tested on: waterhemp (common waterhemp, Amaranthus rudis); test: as above
Summary of the method: as §3

[12] = Postemergence, 125 g ai/ha, 0 to 100 scale, 0 no effect, 100 complete control
[13] = Postemergence, 500 g ai/ha, visual rating after approx. 10 d, 0 to 100 scale (0 no effect, 100 complete control)
[14] = Preemergence, 125 g ai/ha, visual injury rating, 0 to 100 scale (0 no effect, 100 complete control), approx. 10 d
[15] = Preemergence, 500 g ai/ha, 0 to 100 scale where 0 is no effect and 100 is complete control
[16] = 125 g ai/ha, 0 to 100 scale, 0 no effect, 100 complete control
[17] = 500 g ai/ha, visual rating after approx. 10 d, 0 to 100 scale (0 no effect, 100 complete control)
[18] = Postemergence, 31 g ai/ha, scale 0 to 100 (0 no effect, 100 complete control)
[19] = Postemergence, 62 g ai/ha, 0 to 100 scale (0 no effect, 100 complete control)
[20] = Postemergence, 250 g ai/ha, scale 0 to 100, 0 is no effect, 100 is complete control
[21] = postemergence, 125 g ai/ha, scale 0 to 100, 0 no effect, 100 complete control

## Cc1nn(C)c(=O)c(-c2c([N+](=O)[O-])ccc3ccccc23)c1O [Compound 165]
[1]; [12]
  Plant response rating, Pigweed: 80
[1]; [13]
  Plant response rating, Pigweed: 80
[1]; [14]
  Plant response rating, Pigweed: 100
[1]; [15]
  Plant response rating, Pigweed: 90
[2]; [12]
  Plant response rating, Ryegrass, Italian: 80
[2]; [13]
  Plant response rating, Ryegrass, Italian: 90
[2]; [14]
  Plant response rating, Ryegrass, Italian: 40
[2]; [15]
  Plant response rating, Ryegrass, Italian: 100
[3]; [16]
  Plant response rating, Wheat: 0
[3]; [17]
  Plant response rating, Wheat: 0
[4]; [16]
  Plant response rating, Blackgrass: 20
[4]; [17]
  Plant response rating, Blackgrass: 50
[5]; [16]
  Plant response rating, Galium: 100
[5]; [17]
  Plant response rating, Galium: 100
[6]; [18]
  Plant response rating, Lambsquarters: 70
[6]; [19]
  Lambsquarters plant response rating: 75
[6]; [20]
  Plant response rating, Lambsquarters: 98
[6]; [21]
  Lambsquarters plant response rating: 85
[7]; [18]
  Plant response rating, Morningglory: 75
[7]; [19]
  Morningglory plant response rating: 70
[7]; [20]
  Plant response rating, Morningglory: 95
[7]; [21]
  Morningglory plant response rating: 85
[8]; [18]
  Plant response rating, Oilseed Rape: 0
[8]; [19]
  Oilseed Rape plant response rating: 0
[8]; [20]
  Plant response rating, Oilseed Rape: 5
[8]; [21]
  Oilseed Rape plant response rating: 0
[9]; [18]
  Plant response rating, Pigweed: 75
[9]; [19]
  Pigweed plant response rating: 70
[9]; [20]
  Plant response rating, Pigweed: 85
[9]; [21]
  Pigweed plant response rating: 75
[10]; [18]
  Plant response rating, Ragweed: 40
[10]; [19]
  Ragweed plant response rating: 55
[10]; [20]
  Plant response rating, Ragweed: 85
[10]; [21]
  Ragweed plant response rating: 75
[11]; [18]
  Plant response rating, Waterhemp: 65
[11]; [19]
  Waterhemp plant response rating: 70
[11]; [20]
  Plant response rating, Waterhemp: 75
[11]; [21]
  Waterhemp plant response rating: 75
